Measured values published in PubChem BioAssay (NCI).
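Protocol summary: plate cells (96-well), add compound at 5 concentrations, incubate 48 h, interpolate endpoints linearly. TGI is the concentration that stops growth completely.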

How the values were obtained:
Assay in all cases: NCI-60 cell line screen, 48 h
DU-145 prostate = tested on: DU-145 prostate
NCI/ADR-RES ovarian = tested on: NCI/ADR-RES ovarian
TK-10 renal = tested on: TK-10 renal
MDA-MB-435 = tested on: MDA-MB-435
SK-MEL-2 melanoma = tested on: SK-MEL-2 melanoma
SW-620 colon = tested on: SW-620 colon
OVCAR-5 ovarian = tested on: OVCAR-5 ovarian
RXF 393 renal = tested on: RXF 393 renal
OVCAR-4 ovarian = tested on: OVCAR-4 ovarian
MDA-N = tested on: MDA-N
786-0 renal = tested on: 786-0 renal
SNB-75 CNS = tested on: SNB-75 CNS
HOP-62 NSCLC = tested on: HOP-62 NSCLC
BT-549 breast = tested on: BT-549 breast
MCF7 breast = tested on: MCF7 breast
SR leukemia = tested on: SR leukemia
SK-MEL-5 melanoma = tested on: SK-MEL-5 melanoma
SNB-19 CNS = tested on: SNB-19 CNS
K-562 leukemia = tested on: K-562 leukemia
T-47D breast = tested on: T-47D breast
CAKI-1 renal = tested on: CAKI-1 renal
HCC-2998 colon = tested on: HCC-2998 colon
HCT-15 colon = tested on: HCT-15 colon
A549 NSCLC = tested on: A549 NSCLC
A498 renal = tested on: A498 renal
CCRF-CEM leukemia = tested on: CCRF-CEM leukemia
COLO 205 colon = tested on: COLO 205 colon
SK-MEL-28 melanoma = tested on: SK-MEL-28 melanoma
SF-295 CNS = tested on: SF-295 CNS
HL-60(TB) leukemia = tested on: HL-60(TB) leukemia
U251 CNS = tested on: U251 CNS
M14 melanoma = tested on: M14 melanoma
OVCAR-3 ovarian = tested on: OVCAR-3 ovarian
OVCAR-8 ovarian = tested on: OVCAR-8 ovarian
UACC-257 melanoma = tested on: UACC-257 melanoma
HOP-92 NSCLC = tested on: HOP-92 NSCLC
KM12 colon = tested on: KM12 colon
EKVX NSCLC = tested on: EKVX NSCLC
PC-3 prostate = tested on: PC-3 prostate
ACHN renal = tested on: ACHN renal
HCT-116 colon = tested on: HCT-116 colon
MOLT-4 leukemia = tested on: MOLT-4 leukemia
LOX IMVI melanoma = tested on: LOX IMVI melanoma
NCI-H226 lung = tested on: NCI-H226 lung
SN12C renal = tested on: SN12C renal
NCI-H460 lung = tested on: NCI-H460 lung
SK-OV-3 ovarian = tested on: SK-OV-3 ovarian
RPMI-8226 leukemia = tested on: RPMI-8226 leukemia
UO-31 renal = tested on: UO-31 renal
NCI-H23 lung = tested on: NCI-H23 lung
HT29 colon = tested on: HT29 colon
SF-268 CNS = tested on: SF-268 CNS
NCI-H522 lung = tested on: NCI-H522 lung
SF-539 CNS = tested on: SF-539 CNS
IGROV1 ovarian = tested on: IGROV1 ovarian
UACC-62 melanoma = tested on: UACC-62 melanoma
MDA-MB-231 breast = tested on: MDA-MB-231 breast

SMILES: COC(=O)C1(C(=O)OC)N=C(C)OC1C(C)C (stereo not drawn)
- TGI (DU-145 prostate): > 100 µM
- TGI (NCI/ADR-RES ovarian): > 100 µM
- TGI (TK-10 renal): > 100 µM
- TGI (MDA-MB-435): > 100 µM
- TGI (SK-MEL-2 melanoma): > 100 µM
- TGI (SW-620 colon): > 100 µM
- TGI (OVCAR-5 ovarian): > 100 µM
- TGI (RXF 393 renal): > 100 µM
- TGI (OVCAR-4 ovarian): > 100 µM
- TGI (MDA-N): > 100 µM
- TGI (786-0 renal): > 100 µM
- TGI (SNB-75 CNS): > 100 µM
- TGI (HOP-62 NSCLC): > 100 µM
- TGI (BT-549 breast): > 100 µM
- TGI (MCF7 breast): > 100 µM
- TGI (SR leukemia): > 100 µM
- TGI (SK-MEL-5 melanoma): > 100 µM
- TGI (SNB-19 CNS): > 100 µM
- TGI (K-562 leukemia): > 100 µM
- TGI (T-47D breast): > 100 µM
- TGI (CAKI-1 renal): > 100 µM
- TGI (HCC-2998 colon): > 100 µM
- TGI (HCT-15 colon): > 100 µM
- TGI (A549 NSCLC): > 100 µM
- TGI (A498 renal): > 100 µM
- TGI (CCRF-CEM leukemia): > 100 µM
- TGI (COLO 205 colon): > 100 µM
- TGI (SK-MEL-28 melanoma): > 100 µM
- TGI (SF-295 CNS): > 100 µM
- TGI (HL-60(TB) leukemia): > 100 µM
- TGI (U251 CNS): > 100 µM
- TGI (M14 melanoma): > 100 µM
- TGI (OVCAR-3 ovarian): > 100 µM
- TGI (OVCAR-8 ovarian): > 100 µM
- TGI (UACC-257 melanoma): > 100 µM
- TGI (HOP-92 NSCLC): > 100 µM
- TGI (KM12 colon): > 100 µM
- TGI (EKVX NSCLC): > 100 µM
- TGI (PC-3 prostate): > 100 µM
- TGI (ACHN renal): > 100 µM
- TGI (HCT-116 colon): > 100 µM
- TGI (MOLT-4 leukemia): > 100 µM
- TGI (LOX IMVI melanoma): > 100 µM
- TGI (NCI-H226 lung): > 100 µM
- TGI (SN12C renal): > 100 µM
- TGI (NCI-H460 lung): > 100 µM
- TGI (SK-OV-3 ovarian): > 100 µM
- TGI (RPMI-8226 leukemia): > 100 µM
- TGI (UO-31 renal): > 100 µM
- TGI (NCI-H23 lung): > 100 µM

SMILES: COC(=O)[C@@H]1N2C(=S)N(c3ccccc3)C(=O)[C@H]2SC1(C)C
- TGI (DU-145 prostate): > 100 µM
- TGI (NCI/ADR-RES ovarian): > 100 µM
- TGI (TK-10 renal): > 100 µM
- TGI (MDA-MB-435): > 100 µM
- TGI (SK-MEL-2 melanoma): > 100 µM
- TGI (SW-620 colon): > 100 µM
- TGI (OVCAR-5 ovarian): > 100 µM
- TGI (RXF 393 renal): > 100 µM
- TGI (OVCAR-4 ovarian): > 100 µM
- TGI (MDA-N): > 100 µM
- TGI (786-0 renal): > 100 µM
- TGI (SNB-75 CNS): > 100 µM
- TGI (HOP-62 NSCLC): > 100 µM
- TGI (BT-549 breast): > 100 µM
- TGI (MCF7 breast): > 100 µM
- TGI (SR leukemia): > 100 µM
- TGI (SK-MEL-5 melanoma): > 100 µM
- TGI (SNB-19 CNS): > 100 µM
- TGI (HT29 colon): > 100 µM
- TGI (T-47D breast): > 100 µM
- TGI (CAKI-1 renal): > 100 µM
- TGI (HCC-2998 colon): > 100 µM
- TGI (SF-268 CNS): > 100 µM
- TGI (NCI-H522 lung): > 100 µM
- TGI (HCT-15 colon): > 100 µM
- TGI (A549 NSCLC): > 100 µM
- TGI (A498 renal): > 100 µM
- TGI (COLO 205 colon): > 100 µM
- TGI (SK-MEL-28 melanoma): > 100 µM
- TGI (SF-295 CNS): > 100 µM
- TGI (U251 CNS): > 100 µM
- TGI (M14 melanoma): > 100 µM
- TGI (OVCAR-3 ovarian): > 100 µM
- TGI (SF-539 CNS): > 100 µM
- TGI (OVCAR-8 ovarian): > 100 µM
- TGI (UACC-257 melanoma): > 100 µM
- TGI (HOP-92 NSCLC): 69.2 µM
- TGI (KM12 colon): > 100 µM
- TGI (EKVX NSCLC): > 100 µM
- TGI (PC-3 prostate): > 100 µM
- TGI (ACHN renal): > 100 µM
- TGI (HCT-116 colon): > 100 µM
- TGI (MOLT-4 leukemia): > 100 µM
- TGI (NCI-H226 lung): > 100 µM
- TGI (SN12C renal): > 100 µM
- TGI (IGROV1 ovarian): > 100 µM
- TGI (UACC-62 melanoma): > 100 µM
- TGI (NCI-H460 lung): > 100 µM
- TGI (MDA-MB-231 breast): > 100 µM
- TGI (SK-OV-3 ovarian): > 100 µM
- TGI (RPMI-8226 leukemia): > 100 µM
- TGI (UO-31 renal): > 100 µM
- TGI (NCI-H23 lung): > 100 µM
